From patent US10308643B2, “Heterocyclic compound” (Takeda Pharmaceutical Company Limited, priority 2015, dated 2019)
Where a name gives a salt, the structure may show the parent alone.

How the values were obtained:
Assay type in all cases: biochemical
HDAC6 enzyme = target: T1, HDAC6 enzyme (Homo sapiens, UniProt Q9UBN7); test: HDAC1/6 Enzyme Inhibitory Assay (HDAC-Glo I/II Assay kit), HDAC6; conditions: 1 μM test compound, wells without enzyme = 100% inhibition; for inhibition at 1 µM: read-out: HDAC6 inhibitory rate (%) (1 μM)
T1 construct: transducing full length HDAC1 and HDAC6 genes into Sf-9 insect cells; GST; purchased SignalChem; host or cells: Sf-9 insect cells
T1 sequence (Q9UBN7 1-1215): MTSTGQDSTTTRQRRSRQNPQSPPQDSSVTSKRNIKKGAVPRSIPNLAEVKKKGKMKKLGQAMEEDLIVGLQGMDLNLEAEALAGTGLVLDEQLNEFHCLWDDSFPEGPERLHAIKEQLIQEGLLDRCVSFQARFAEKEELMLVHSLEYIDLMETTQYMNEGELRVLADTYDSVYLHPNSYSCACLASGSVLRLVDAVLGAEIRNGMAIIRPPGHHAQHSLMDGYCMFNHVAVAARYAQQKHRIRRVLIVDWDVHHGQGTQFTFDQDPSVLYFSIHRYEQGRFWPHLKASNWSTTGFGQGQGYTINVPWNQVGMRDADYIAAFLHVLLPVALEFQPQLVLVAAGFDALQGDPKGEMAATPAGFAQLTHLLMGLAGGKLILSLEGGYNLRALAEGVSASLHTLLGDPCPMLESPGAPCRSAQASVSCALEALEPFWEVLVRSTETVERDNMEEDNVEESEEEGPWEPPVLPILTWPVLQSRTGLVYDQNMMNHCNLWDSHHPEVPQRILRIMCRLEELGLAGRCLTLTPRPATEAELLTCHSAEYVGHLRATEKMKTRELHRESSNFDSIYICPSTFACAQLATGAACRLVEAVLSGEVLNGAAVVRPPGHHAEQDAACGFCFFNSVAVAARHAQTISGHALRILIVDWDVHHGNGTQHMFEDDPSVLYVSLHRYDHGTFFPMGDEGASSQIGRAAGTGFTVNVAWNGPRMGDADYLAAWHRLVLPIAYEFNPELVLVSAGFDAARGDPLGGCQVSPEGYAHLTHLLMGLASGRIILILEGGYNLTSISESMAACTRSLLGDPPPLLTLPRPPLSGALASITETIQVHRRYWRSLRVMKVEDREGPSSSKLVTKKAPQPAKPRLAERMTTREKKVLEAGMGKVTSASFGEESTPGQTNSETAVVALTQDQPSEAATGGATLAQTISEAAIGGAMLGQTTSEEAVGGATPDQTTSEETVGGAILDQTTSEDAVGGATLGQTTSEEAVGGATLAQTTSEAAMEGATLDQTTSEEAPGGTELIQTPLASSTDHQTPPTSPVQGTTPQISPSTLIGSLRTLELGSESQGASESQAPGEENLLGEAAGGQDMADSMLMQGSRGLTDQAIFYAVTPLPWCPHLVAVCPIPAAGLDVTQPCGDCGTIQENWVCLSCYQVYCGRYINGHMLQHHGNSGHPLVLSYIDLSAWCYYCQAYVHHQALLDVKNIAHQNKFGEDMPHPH
Procedure, shortened: (§1)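 Full-length human HDAC1 or HDAC6, expressed in Sf-9 cells and GST-purified, was preincubated with compound for 60 min at room temperature in Tris-HCl pH 7.5 buffer with MgCl2, KCl, NaCl, glutathione and Tween-20. HDAC-Glo substrate-developer was then added, and luminescence was read after 20 min. Inhibition was referenced to no-enzyme wells as 100%.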

HDAC1 enzyme = target: T2, HDAC1 enzyme (Homo sapiens, UniProt Q13547); test: HDAC1/6 Enzyme Inhibitory Assay (HDAC-Glo I/II Assay kit), HDAC1; conditions: 1 μM test compound, wells without enzyme = 100% inhibition; for inhibition at 1 µM: read-out: HDAC1 inhibitory rate (%) (1 μM)
T2 construct: transducing full length HDAC1 and HDAC6 genes into Sf-9 insect cells; GST; purchased SignalChem; host or cells: Sf-9 insect cells
T2 sequence (Q13547 whole entry): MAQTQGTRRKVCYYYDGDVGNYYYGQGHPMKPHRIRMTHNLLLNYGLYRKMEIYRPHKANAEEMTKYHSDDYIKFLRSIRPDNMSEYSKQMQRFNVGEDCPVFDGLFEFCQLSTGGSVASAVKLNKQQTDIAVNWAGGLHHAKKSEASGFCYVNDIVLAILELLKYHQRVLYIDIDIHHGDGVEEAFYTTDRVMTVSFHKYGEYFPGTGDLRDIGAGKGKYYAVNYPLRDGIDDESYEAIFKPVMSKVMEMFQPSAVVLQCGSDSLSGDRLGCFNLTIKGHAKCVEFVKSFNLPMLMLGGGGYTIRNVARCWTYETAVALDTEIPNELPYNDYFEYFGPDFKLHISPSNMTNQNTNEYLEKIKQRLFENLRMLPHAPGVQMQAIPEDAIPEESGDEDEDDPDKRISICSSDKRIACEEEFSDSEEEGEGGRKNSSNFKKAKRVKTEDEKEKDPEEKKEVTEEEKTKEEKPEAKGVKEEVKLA
Procedure, shortened: as §1

HDAC9 enzyme = target: T3, HDAC9 enzyme (Homo sapiens, UniProt Q9UKV0); test: HDAC9 Enzyme Inhibitory Assay (HDAC-Glo class IIa); conditions: 1 μM test compound, wells without enzyme = 100% inhibition; for inhibition at 1 µM: read-out: HDAC9 inhibitory rate (%) (1 μM)
T3 construct: transducing full length HDAC9 gene into Sf-9 insect cells; made in house; host or cells: Sf-9 insect cells
T3 sequence (Q9UKV0 whole entry, species assumed): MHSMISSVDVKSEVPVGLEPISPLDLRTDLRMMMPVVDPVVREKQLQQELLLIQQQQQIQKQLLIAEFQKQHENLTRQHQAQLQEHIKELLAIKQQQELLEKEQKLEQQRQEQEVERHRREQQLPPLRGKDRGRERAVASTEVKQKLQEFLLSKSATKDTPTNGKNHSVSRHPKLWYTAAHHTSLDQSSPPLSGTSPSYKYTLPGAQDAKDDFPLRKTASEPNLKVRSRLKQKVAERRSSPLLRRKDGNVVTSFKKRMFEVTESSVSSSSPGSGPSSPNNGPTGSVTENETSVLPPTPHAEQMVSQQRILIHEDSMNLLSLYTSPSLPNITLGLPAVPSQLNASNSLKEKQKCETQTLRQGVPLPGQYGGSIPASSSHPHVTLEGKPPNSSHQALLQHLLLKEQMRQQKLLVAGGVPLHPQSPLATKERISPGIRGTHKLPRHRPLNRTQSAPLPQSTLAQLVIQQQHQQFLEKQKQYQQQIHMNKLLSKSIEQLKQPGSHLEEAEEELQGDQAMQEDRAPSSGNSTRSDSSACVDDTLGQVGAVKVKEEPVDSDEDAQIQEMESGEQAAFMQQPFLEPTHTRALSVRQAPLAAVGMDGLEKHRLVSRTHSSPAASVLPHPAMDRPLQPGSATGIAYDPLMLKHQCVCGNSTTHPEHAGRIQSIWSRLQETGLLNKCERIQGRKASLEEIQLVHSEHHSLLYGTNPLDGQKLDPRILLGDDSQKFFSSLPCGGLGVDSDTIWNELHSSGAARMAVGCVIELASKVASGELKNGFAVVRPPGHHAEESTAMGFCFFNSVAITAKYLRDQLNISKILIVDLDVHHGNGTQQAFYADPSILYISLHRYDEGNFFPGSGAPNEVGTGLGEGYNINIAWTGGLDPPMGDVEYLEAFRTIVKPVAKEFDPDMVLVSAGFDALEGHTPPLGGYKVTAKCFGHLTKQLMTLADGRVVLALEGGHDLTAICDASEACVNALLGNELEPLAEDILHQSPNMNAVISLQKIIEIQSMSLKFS
Procedure, shortened: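 Luminescent HDAC-Glo class IIa readout after a 20 min room-temperature reaction; relative inhibition referenced to enzyme-free wells as 100%. Test compound first preincubated 60 min with Sf-9-expressed, Ni-NTA-purified full-length HDAC9 in pH 7.5 Tris buffer containing 135 mM NaCl, 0.6 mM glutathione and 0.01% Tween-20.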

SMILES | inhibition at 1 µM (HDAC6 enzyme) [%] | inhibition at 1 µM (HDAC1 enzyme) [%] | inhibition at 1 µM (HDAC9 enzyme) [%] | HDAC6 inhibitory rate (%) (1 μM) (HDAC6 enzyme; 1 µM) | HDAC1 inhibitory rate (%) (1 μM) (HDAC1 enzyme; 1 µM) | HDAC9 inhibitory rate (%) (1 μM) (HDAC9 enzyme; 1 µM)
CC(C)(C)OC(=O)N1CC[C@@H](N2Cc3ccc(-c4noc(C(F)(F)F)n4)cc3C2=O)[C@@H](c2ccccc2)C1 [Example 19, tert-butyl (3S,4R)-4-(1-oxo-6-(5-(trifluoromethyl)-1,2,4-oxadiazol-3-yl)-1,3-dihydro-2H-isoindol-2-yl)-3-phenylpiperidine-1-carboxylate] | 99 | 18 | 48 | – | – | –
Cc1ccc([C@@H]2CNCC[C@H]2N2Cc3ccc(-c4noc(C(F)(F)F)n4)cc3C2=O)cc1F (relative stereo) [Example 48, 2-(trans-3-(3-fluoro-4-methylphenyl)piperidin-4-yl)-6-(5-(trifluoromethyl)-1,2,4-oxadiazol-3-yl)isoindolin-1-one] | 99 | 90 | 98 | – | – | –
CC(=O)N1CC[C@@H](N2Cc3cc(-c4noc(C(F)(F)F)n4)ccc3C2=O)[C@H](c2ccccc2)C1 (relative stereo) [Example 137, trans-2-(1-acetyl-3-phenylpiperidin-4-yl)-5-(5-(trifluoromethyl)-1,2,4-oxadiazol-3-yl)isoindolin-1-one] | 89 | 25 | 94 | – | – | –
O=C(c1ccccc1)N1CCC(N2Cc3ncc(-c4noc(C(F)(F)F)n4)cc3C2=O)C1 (stereo not drawn) [Example 70, 6-(1-benzoylpyrrolidin-3-yl)-3-(5-(trifluoromethyl)-1,2,4-oxadiazol-3-yl)-6,7-dihydro-5H-pyrrolo[3,4-b]pyridin-5-one] | 96 | 52 | 95 | – | – | –
O=C(N[C@@H]1CCOC[C@@H]1N1Cc2ccc(-c3noc(C(F)(F)F)n3)cc2C1=O)C1CC1(F)F (single isomer, unassigned) [Example 211, (1R) or (1S)-2,2-difluoro-N-((3R,4R)-3-(1-oxo-6-(5-(trifluoromethyl)-1,2,4-oxadiazol-3-yl)-1,3-dihydro-2H-isoindol-2-yl)tetrahydro-2H-pyran-4-yl)cyclopropanecarboxamide] | – | – | – | 43 | −1 | 33
C[C@H](c1ccccc1)N1CC[C@H]2CC[C@H](N3Cc4ccc(-c5noc(C(F)(F)F)n5)cc4C3=O)[C@H]21 [Example 63, 2-((3aR,6S,6aS)-1-((1R)-1-phenylethyl)octahydrocyclopenta[b]pyrrol-6-yl)-6-(5-(trifluoromethyl)-1,2,4-oxadiazol-3-yl)isoindolin-1-one] | 90 | 15 | 82 | – | – | –
N[C@H]1CCCC[C@H]1N1Cc2ccc(-c3noc(C(F)(F)F)n3)cc2C1=O (relative stereo) [Example 199, 2-(cis-2-aminocyclohexyl)-6-(5-(trifluoromethyl)-1,2,4-oxadiazol-3-yl)isoindolin-1-one] | 68 | 5 | 75 | – | – | –
O=C(Cc1ccc(F)cc1)N1CCCC(N2Cc3ncc(-c4noc(C(F)(F)F)n4)cc3C2=O)C1 (stereo not drawn) [Example 41, 6-(1-((4-fluorophenyl)acetyl)piperidin-3-yl)-3-(5-(trifluoromethyl)-1,2,4-oxadiazol-3-yl)-6,7-dihydro-5H-pyrrolo[3,4-b]pyridin-5-one] | 93 | 37 | 94 | – | – | –
O=C1c2cc(-c3noc(C(F)(F)F)n3)ccc2CN1C1CCNC[C@@H]1c1ccccc1 (stereo partly drawn) [Example 22, 2-((3S,4R)-3-phenyipiperidin-4-yl)-6-(5-(trifluoromethyl)-1,2,4-oxadiazol-3-yl)isoindolin-1-one, hydrochloride] | 100 | 85 | 96 | – | – | –
O=C(c1ccccc1)N1C[C@@H](N2Cc3ccc(-c4noc(C(F)(F)F)n4)cc3C2=O)[C@H](c2ccccc2)C1 (relative stereo) [Example 10, trans-2-(1-benzoyl-4-phenylpyrrolidin-3-yl)-6-(5-(trifluoromethyl)-1,2,4-oxadiazol-3-yl)isoindolin-1-one] | 96 | 63 | 96 | – | – | –
O=C(N[C@H]1COCC[C@@H]1N1Cc2ccc(-c3noc(C(F)(F)F)n3)cc2C1=O)[C@@H]1CC1(F)F [Example 220, (1S)-2,2-difluoro-N-((3R,4S)-4-(1-oxo-6-(5-(trifluoromethyl)-1,2,4-oxadiazol-3-yl)-1,3-dihydro-2H-isoindol-2-yl)tetrahydro-2H-pyran-3-yl)cyclopropanecarboxamide] | 84 | 23 | 65 | – | – | –
O=C1c2cc(-c3noc(C(F)(F)F)n3)ccc2CN1[C@H]1CCCC[C@@H]1N1CCOCC1 (relative stereo) [Example 59, 2-(trans-2-(morpholin-4-yl)cyclohexyl)-6-(5-(trifluoromethyl)-1,2,4-oxadiazol-3-yl)isoindolin-1-one] | 97 | 60 | 91 | – | – | –

Next, values leading:

inhibition at 1 µM (HDAC6 enzyme) [%] | inhibition at 1 µM (HDAC1 enzyme) [%] | inhibition at 1 µM (HDAC9 enzyme) [%] | HDAC6 inhibitory rate (%) (1 μM) (HDAC6 enzyme; 1 µM) | HDAC1 inhibitory rate (%) (1 μM) (HDAC1 enzyme; 1 µM) | HDAC9 inhibitory rate (%) (1 μM) (HDAC9 enzyme; 1 µM) | SMILES
97 | 5 | 52 | – | – | – | O=C(N[C@@H]1CCOC[C@H]1N1Cc2ccc(-c3noc(C(F)(F)F)n3)cc2C1=O)[C@@H]1CCOC1 [Example 206, (3R)-N-((3S,4R)-3-(1-oxo-6-(5-(trifluoromethyl)-1,2,4-oxadiazol-3-yl)-1,3-dihydro-2H-isoindol-2-yl)tetrahydro-2H-pyran-4-yl)tetrahydrofuran-3-carboxamide]
98 | 80 | 92 | – | – | – | O=C(N[C@H]1CCCC[C@H]1N1Cc2ccc(-c3noc(C(F)(F)F)n3)cc2C1=O)C1CC1 [Example 86, N-((1S,2R)-2-(1-oxo-6-(5-(trifluoromethyl)-1,2,4-oxadiazol-3-yl)-1,3-dihydro-2H-isoindol-2-yl)cyclohexyl) cyclopropanecarboxamide]
100 | 5 | 57 | – | – | – | COC1(C(=O)N[C@@H]2CCCC[C@H]2N2Cc3ccc(-c4noc(C(F)(F)F)n4)cc3C2=O)CCC1 [Example 175, 1-methoxy-N-((1R,2R)-2-(1-oxo-6-(5-(trifluoromethyl)-1,2,4-oxadiazol-3-yl)-1,3-dihydro-2H-isoindol-2-yl)cyclohexyl)cyclobutanecarboxamide]
98 | 10 | 43 | – | – | – | CC(=O)N[C@@H]1CCCC[C@H]1N1Cc2ccc(-c3noc(C(F)(F)F)n3)cc2C1=O (relative stereo) [Example 8, trans-N-(2-(1-oxo-6-(5-(trifluoromethyl)-1,2,4-oxadiazol-3-yl)-1,3-dihydro-2H-isoindol-2-yl)cyclohexyl)acetamide]
56 | -4 | 5 | – | – | – | CN1CCC(C(=O)N[C@@H]2CCCC[C@H]2N2Cc3ccc(-c4noc(C(F)(F)F)n4)cc3C2=O)CC1 [Example 123, 1-methyl-N-((1R,2R)-2-(1-oxo-6-(5-(trifluoromethyl)-1,2,4-oxadiazol-3-yl)-1,3-dihydro-2H-isoindol-2-yl)cyclohexyl)piperidine-4-carboxamide]
